Measured values as given in patent US12306164B2, “Therapeutic drug for lipid-peroxidation-induced diseases and screening method for therapeutic drugs for lipid-peroxidation-induced diseases” (FUSO PHARMACEUTICAL INDUSTRIES, LTD., priority 2017, dated 2025).

What was measured:
Format in all cases: cell-based, human
HepG2 cells [1] = experiment: Secondary screening, Core Library (MTT assay); conditions: 50 μM compound, 100 μM AA or tBHP, 24 hours
Procedure: As a cell-based screening for examining the cell death inhibitory activity, an assay using human hepatoma-derived HepG2 cells and AA and tBHP as radical initiators is performed, and the cell viability is measured. The activity value is determined from the cell viability value based on the following expression: Activity value=100(ViabilitySample−ViabilityControl(+))/(ViabilityControl(−)−ViabilityControl(+)) • ViabilitySample: Cell viability for with reaction initiator and with each compound (n=1) • ViabilityControl(+): Cell viability for with reaction initiator and with each compound • ViabilityControl(−): Cell viability for without reaction initiator and without each compound
For the compounds, 10 mM 100% DMSO solutions (dispensed at 5.0 µL/well) were provided from Drug Discovery Initiative, the University of Tokyo. 495 μL of DMEM medium for measurement was added, and 1.0% DMSO solution containing 100 μM of the compound was prepared. This solution was dispensed by 80 μL with Biomek NXP into a measuring plate on which cells were seeded in advance. To the test compound (100 μM 1.0% DMSO), 64 μL of DMEM medium, 16 μL of PBS in which AA (1000 μM, 5.0% ethanol) or tBHP (1000 μM) was dissolved were manually dispensed. The final concentration was 5.0 μM NBD-TEEPO compound, 50 μM test compound, and 100 μM AA or tBHP in DMEM medium (0.5% DMSO, 0.5% acetonitrile). After 24 hours, the medium was exchanged, and MTT solution (0.5 mg/mL, 0.5% DMSO) was added. Then, cells were incubated for 24 hours, and the solution was removed. 100 μL of DMSO was added, and the absorbance at 630 nm was measured. The cell viability was calculated according to the expression described herein, with regarding the case without AA or tBHP as 100%.

HepG2 cells [2] = experiment: Tertiary screening, Core Library (NBD-TEEPO assay); conditions: 50 μM compound, 200 μM AA or 300 μM tBHP
Procedure: The Core Library of Drug Discovery Initiative, the University of Tokyo, includes structural analogs for each compound. Then, secondary screening was also performed for structural analog compounds for each candidate compound in the same manner as Example 13 and the activity values were evaluated.
Specifically, the nine hit compounds, Compound Nos. 7, 19, 39, 48, 52, 64, 73, 78, 80, of the secondary screening had 5, 2, 4, 6, 6, 5, 5, 10, 2 structural analogs, respectively, thus, a total 45 structural analogs were taken. Then, including the original 9 compounds, a total 54 compounds were subjected to tertiary screening, and the activity values were calculated in the same manner.
For the evaluation of cytotoxicity, 50 μM antioxidant was added to HepG2 cells in DMEM medium (0.5% DMSO), and after incubation at 37° C. for 72 hours, the cell viability was measured. • 4) The activity values of the two-added systems in each of the assay using NBD-TEEPO and the MTT assay were plotted (FIG. 15C and FIG. 16C).

HepG2 cells [3] = experiment: Tertiary screening, Core Library (MTT assay); conditions: 50 μM compound, 100 μM AA or tBHP, 24 hours
Procedure: Specifically, the nine hit compounds, Compound Nos. 7, 19, 39, 48, 52, 64, 73, 78, 80, of the secondary screening had 5, 2, 4, 6, 6, 5, 5, 10, 2 structural analogs, respectively, thus, a total 45 structural analogs were taken. Then, including the original 9 compounds, a total 54 compounds were subjected to tertiary screening, and the activity values were calculated in the same manner. […]

Row | Structure (SMILES) | inhibition rates (cell death inhibition) in both AA-added and tBHP-added systems (HepG2 cells [1]) | lipid peroxidation inhibitory effects (HepG2 cells [2]) | cell death inhibitory effects (HepG2 cells [3])
1 | C/C(=N/Nc1nnc(Nc2ccccc2Cl)s1)c1ccccn1 [Compound 19] | high inhibition rates in both systems |  | 
2 | CN(C1CC(C)(C)N(O)C(C)(C)C1)S(=O)(=O)CC12CCC(CC1=O)C2(C)C (stereo not shown) [Compound 39, 1-(7,7-Dimethyl-2-oxobicyclo[2.2.1]heptan-1-yl)-N-(1-hydroxy-2,2,6,6-tetramethylpiperidin-4-yl)-N-methylmethanesulfonamide] | high inhibition rates in both systems |  | 
3 | COC(=O)c1ccc(Nc2ccccc2)c(N)c1 [Compound 52, Methyl 3-amino-4-(phenylamino)benzoate] | high inhibition rates in both systems | high | high
4 | COC(=O)c1ccc(Nc2ccc(OC)cc2)c(N)c1 [Compound 52-1, Methyl 3-amino-4-((4-methoxyphenyl)amino)benzoate] |  | high | high
5 | COC(=O)c1ccc(Nc2cccc(OC)c2)c(N)c1 [Compound 52-3, Methyl 3-amino-4-((3-methoxyphenyl)amino)benzoate] |  | high | high
6 | COC(=O)c1ccc(NCc2ccccc2)c(N)c1 [Compound 52-4, Methyl 3-amino-4-(benzylamino)benzoate] |  | high | high
7 | NC(=O)c1cccc(-c2ccc3nc(-c4cccc(OCCO)c4)c(NCCN4CCOCC4)n3c2)c1 [Compound 73, 3-(2-(3-(2-Hydroxyethoxy)phenyl)-3-((2-morpholinoethyl)amino)imidazo[1,2-a]pyridin-6-yl)benzamide] | high inhibition rates in both systems |  | 
8 | Nc1ccc2c(c1)CCN2c1ccc(OC(F)(F)F)cc1 [Compound 78, 1-(4-(Trifluoromethoxy)phenyl)indolin-5-amine] | high inhibition rates in both systems | high | high
9 | Cc1cc(C)cc(-n2ccc3ccc(N)cc32)c1 [Compound 78-3, 1-(3,5-Dimethylphenyl)-1H-indol-6-amine] |  | high | high
10 | Cc1cc(C)cc(N2CCc3ccc(N)cc32)c1 [Compound 78-4, 1-(3,5-Dimethylphenyl)indolin-6-amine] |  | high | high
11 | COc1ccc(-n2ccc3cc(N)ccc32)cc1 [Compound 78-5, 1-(4-Methoxyphenyl)-1H-indol-5-amine] |  | high | high
12 | CSc1ccc(-n2ccc3cc(N)ccc32)cc1 [Compound 78-6, 1-(4-(Methylthio)phenyl)-1H-indol-5-amine] |  | high | high
13 | Nc1ccc2c(ccn2-c2ccc(OC(F)(F)F)cc2)c1 [Compound 78-8] |  | high | high
